Molecules are shown by their SMILES. Read-outs that look alike come from different tables or passages of the source.

The record followed here is patent publication US20230227466A1, “SUBSTITUTED THIENOPYRIMIDINES THAT INTERACT WITH THE RAS SUPERFAMILY FOR THE TREATMENT OF CANCERS, INFLAMMATORY DISEASES, RASOPATHIES, AND FIBROTIC DISEASE” (SHY Therapeutics, LLC, priority 2020, published 2023).

One experiment has as its target KRas wild type (Homo sapiens, UniProt P01116). Nature of the experiment: Ras GTP binding domain inhibition assay (labeled-GTP competition, cell-free). Further details: made in house. From the text: (§1) This is a competitive binding assay. It involves the immobilization of a protein on solid phase, interaction with a small molecule drug candidate, and then competitive binding with a labeled native GTP or GDP ligand.
(§2) In theory, the assay is suitable for use with any GTP or GDP binding protein.
(§3) The following method was developed as specific assay for the following proteins: KRas wild type, KRas Q61H mutant, KRas G12C mutant, KRas G12D mutant, Rac-1, and Rho-A.
(§4) The small GTPases proteins: KRas wild type. KRas Q61H mutant, KRas G12C mutant, KRas G12D mutants, Rac-1, and Rho-A were expressed as His-tagged proteins. In addition, the Guanosine nucleotide Exchange Factor (GEF) Sos protein (residues 556-1049) was expressed as a His-tagged protein. In cells, the guanine nucleotide exchange factor Sos protein promotes activation of Ras proteins by stimulating an exchange of GDP for GTP. The inclusion of Sos to the Ras GTP binding domain inhibition assay may be considered as an alternative representation of physiological cellular conditions for evaluating the inhibitory activity of some of the tested small molecules.
(§5) For the assay, all purified small GTPases proteins were diluted in Buffer-I or Buffer-II to a final concentration of 10-30 μg/mL. 200 μL of each diluted protein was added to a nickel-coated 96-well plate and incubated overnight at 4° C. Then the protein solution was discarded and 200 μL of Buffer-I or Buffer-II was added to each well in the presence of 1% DMSO. Compounds to be tested were added to the protein-coated wells at final concentration of 20 μM, and incubated for 3 hours at room temperature with and without 10-30 μg/mL of Sos added to the final hour of the incubation. When performing IC50 measurements a serial dilution of all tested concentrations was added. Then Cy3-GTP or Cy5-GTP was added to each well to a final concentration of 100 nM. The labeled GTP was incubated for 45 minutes at room temperature. Following GTP incubation, wells were washed 3× in Buffer-I or Buffer-II and 200 μL of Buffer-I or Buffer-II was added to each well. Following washes, the amount of bound labeled-GTP was measured using a SpectraMax M3 (Molecular Devices).

The next experiment deals with Rho-A (Homo sapiens, UniProt P61586). The experiment is described as above. The arrangement: made in house.
Text: as §1, §2, §3, §4, §5

Another experiment concerns the target Rac-1 (Homo sapiens, UniProt P63000). The experiment is described as above. The arrangement: made in house.
Text: as §1, §2, §3, §4, §5

The subject of experiment [1] is ERK1/2 phosphorylation in Panc-1 cells. Nature of the experiment: Western ERK1/2 cell-based phosphorylation assay. Further details: species or system human. The conditions noted are these: at 10 μM, values in brackets < > are activation %, not inhibition. The procedure: Cell lines: Human tumor-derived pancreatic cancer cell line Panc-1 was purchased from American Type Culture Collection and grown in complete DMEM-High Glucose, supplemented with penicillin (100 U/mL), streptomycin (100 μg/mL), and 10% heat-inactivated FBS at 37° C. in a humidified incubator with 5% CO2.
(§6) Method: Cells were plated at 350000 cells/well density in a 12-well plate, allowed 3 hours to adhere to the plate, then starved in the appropriate medium in the presence of 0.5% FBS overnight. The small molecules to be tested were added to the cells in the final concentration of 10 μM in the presence of 0.3% DMSO for 6 hours incubation at 37° C. For IC50 value determination, serial dilutions of compounds were added to cells under the same conditions. Next, cells were stimulated with 1.5 ng/ml EGF for 15 minutes then cells were lysed with lysis buffer containing 1% Triton X-100, EDTA, and Halt™ Protease & Phosphatase Inhibitor Cocktail (Thermo Scientific). Protein concentration was assessed by BCA protein assay (Thermo Scientific). Phosphorylation level of ERK1/2 was determined by western blot.
(§7) Western blot protocol: Equal amounts of protein (15-50 μg) were separated by SDS-PAGE and transferred to nitrocellulose membranes (Invitrogen by Thermo Fisher Scientific). The membrane was stained with Ponceau S Stain (Boston BioProducts) to verify uniform protein loading. Membranes were blocked with 10% milk and phosphorylation levels of ERK1/2 were assessed by incubating overnight at 4° C. with anti-phospho-p44/42 (Thr202/Tyr204) antibody (Cell Signaling) followed by HRP-conjugated secondary antibody (Jackson Immunoresearch, West Grove, Pa.). Bands were incubated in Amersham ECL Prime Western Blotting Detection Reagent (GE Healthcare) and visualized using the ChemiDoc MP imaging system (Bio-Rad). Protocol for Western AKT cell-based phosphorylation assay

In experiment [2] the test system is Akt phosphorylation in Panc-1 cells. Nature of the experiment: Western AKT cell-based phosphorylation assay. The conditions noted are these: at 10 μM, values in brackets < > are activation %, not inhibition. The arrangement: species or system human. The procedure: Human Tumor-Derived Pancreatic Cancer Cell Line Panc-1 was Purchased from
American Type Culture Collection and grown in complete DMEM-High Glucose supplemented with penicillin (100 U/mL), streptomycin (100 μg/mL), and 10% heat-inactivated FBS at 37° C. in a humidified incubator with 5% CO2.
as §6, with “C.” for “C. For IC50 value determination, serial dilutions of compounds were added to cells under the same conditions.”, “Akt” for “ERK1/2”
as §7, with “Akt” for “ERK1/2”, “anti-phospho-Akt (Ser473)” for “anti-phospho-p44/42 (Thr202/Tyr204)”, “(Bio-Rad).” for “(Bio-Rad). Protocol for Western AKT cell-based phosphorylation assay”

Where [3] appears, read: with SOS, read-out: KRas wild type + SOS: % inh.
Setting [4] is: without SOS, read-out: KRas wild type: % inh.
Where [5] appears, read: with SOS, read-out: Rho-A + SOS: % inh.
[6] abbreviates: without SOS, read-out: Rho-A: % inh.
Setting [7] is: with SOS, read-out: Rac-1 + SOS: % inh.
[8] abbreviates: without SOS, read-out: Rac-1: % inh.

On to `COCCn1ccnc1-c1nc(N[C@@H]2CC[C@H](OC)C2)c2c(-c3ccccc3)c(-c3ccn(C)n3)sc2n1` (racemic) [Compound 6, Rac-N-((1R,3S)-3-methoxycyclopentyl)-2-(1-(2-methoxyethyl)-1H-imidazol-2-yl)-6-(1-methyl-1H-pyrazol-3-yl)-5-phenylthieno[2,3-d]pyrimidin-4-amine], for which the inhibition at 20 µM on KRas wild type (setting [3]), on KRas wild type (setting [4]), at Rho-A (setting [5]), on Rho-A (setting [6]), at Rac-1 (setting [7]) and on Rac-1 (setting [8]) was 76 to 100% in each case. Moreover, the “% inh of ERK1/2 phosphorylation in PANC-1” value in experiment [1] was “D (76-100% inhibition)”. In addition, the “% inh of AKT phosphorylation in PANC-1” value in experiment [2] is reported as 0 (0% inhibition).
Take `COCCn1ccnc1-c1nc(N[C@@H]2CC[C@H](OC)C2)c2ccsc2n1` (racemic) [Compound 8, Rac-N-((1R,3S)-3-methoxycyclopentyl)-2-(1-(2-methoxyethyl)-1H-imidazol-2-yl)thieno[2,3-d]pyrimidin-4-amine]: the inhibition at 20 µM at KRas wild type (setting [3]), on KRas wild type (setting [4]), at Rho-A (setting [5]), at Rho-A (setting [6]), at Rac-1 (setting [7]) and at Rac-1 (setting [8]) was 76 to 100% throughout. Further, the “% inh of ERK1/2 phosphorylation in PANC-1” value in experiment [1] is given as 0 (0% inhibition). Besides, the “% inh of AKT phosphorylation in PANC-1” value in experiment [2] is recorded as 0 (0% inhibition).
For `CO[C@H]1CC[C@@H](Nc2nc(-c3nccn3C)nc3sccc23)C1` (racemic) [Compound 10, Rac-N-((1R,3S)-3-methoxycyclopentyl)-2-(1-methyl-1H-imidazol-2-yl)thieno[2,3-d]pyrimidin-4-amine], the inhibition at 20 µM at KRas wild type (setting [3]) was 76 to 100%; at KRas wild type (setting [4]), 51 to 75%; on Rho-A (setting [5]), 76 to 100%; at Rho-A (setting [6]), 76 to 100%; at Rac-1 (setting [7]), 76 to 100%; on Rac-1 (setting [8]), 76 to 100%. Moreover, the “% inh of ERK1/2 phosphorylation in PANC-1” value in experiment [1] is given as “A (1-25% inhibition)”. For the same compound, the “% inh of AKT phosphorylation in PANC-1” value in experiment [2] is given as 0 (0% inhibition).
Regarding `CO[C@H]1CC[C@@H](Nc2nc(C(N)=O)nc3sccc23)C1` (racemic) [Compound 11, Rac-4-(((1R,3S)-3-methoxycyclopentyl)amino)thieno[2,3-d]pyrimidine-2-carboxamide], the inhibition at 20 µM was 1 to 25% at KRas wild type (setting [3]); 0% on KRas wild type (setting [4]); 1 to 25% at Rho-A (setting [5]); 1 to 25% at Rho-A (setting [6]); 0% at Rac-1 (setting [7]); 0% on Rac-1 (setting [8]). Besides, the “% inh of ERK1/2 phosphorylation in PANC-1” value in experiment [1] is on record as 0 (0% inhibition). Also, in experiment [2], the “% inh of AKT phosphorylation in PANC-1” value is listed as 0 (0% inhibition).
For `CO[C@H]1CC[C@@H](Nc2nc(C(=O)N3CCOCC3)nc3sccc23)C1` (racemic) [Compound 12, Rac-(4-(((1R,3S)-3-methoxycyclopentyl)amino)thieno[2,3-d]pyrimidin-2-yl)(morpholino)methanone], the inhibition at 20 µM at KRas wild type (setting [3]) was 1 to 25%; at KRas wild type (setting [4]), 0%; on Rho-A (setting [5]) it was 1 to 25%; at Rho-A (setting [6]), 1 to 25%; at Rac-1 (setting [7]) it was 1 to 25%; at Rac-1 (setting [8]) it was 0%. Also, the “% inh of ERK1/2 phosphorylation in PANC-1” value in experiment [1] was 0 (0% inhibition). The “% inh of AKT phosphorylation in PANC-1” value in experiment [2] is given as 0 (0% inhibition).
Turning to `CO[C@H]1CC[C@@H](Nc2nc(C(=O)NC(C)C)nc3sccc23)C1` (racemic) [Compound 13, Rac-N-isopropyl-4-(((1R,3S)-3-methoxycyclopentyl)amino)thieno[2,3-d]pyrimidine-2-carboxamide], the inhibition at 20 µM on KRas wild type (setting [3]) is 1 to 25%; on KRas wild type (setting [4]), 0%; on Rho-A (setting [5]), 1 to 25%; at Rho-A (setting [6]), 1 to 25%; on Rac-1 (setting [7]) it was 0%; at Rac-1 (setting [8]), 1 to 25%. Also, the “% inh of ERK1/2 phosphorylation in PANC-1” value in experiment [1] is on record as 0 (0% inhibition). Moreover, the “% inh of AKT phosphorylation in PANC-1” value in experiment [2] is 0 (0% inhibition).
Consider `COCCNC(=O)c1nc(N[C@@H]2CC[C@H](OC)C2)c2ccsc2n1` (racemic) [Compound 14, rac-4-(((1R,3S)-3-Methoxycyclopentyl)amino)-N-(2-methoxyethyl)thieno[2,3-d]pyrimidine-2-carboxamide], for which the inhibition at 20 µM was 0% on KRas wild type (setting [3]); 0% on KRas wild type (setting [4]); 1 to 25% at Rho-A (setting [5]); 1 to 25% at Rho-A (setting [6]); 0% at Rac-1 (setting [7]); 0% on Rac-1 (setting [8]). The “% inh of ERK1/2 phosphorylation in PANC-1” value in experiment [1] is 0 (0% inhibition). The “% inh of AKT phosphorylation in PANC-1” value in experiment [2] was 0 (0% inhibition).
In the case of `CO[C@H]1CC[C@@H](Nc2nc(C(=O)Nc3ccccc3)nc3sccc23)C1` (racemic) [Compound 15, rac-4-(((1R,3S)-3-Methoxycyclopentyl)amino)-N-phenylthieno[2,3-d]pyrimidine-2-carboxamide], the inhibition at 20 µM is 0% on KRas wild type (setting [3]); 1 to 25% on KRas wild type (setting [4]); 0% at Rho-A (setting [5]); 0% at Rho-A (setting [6]); 0% at Rac-1 (setting [7]); 0% on Rac-1 (setting [8]). Besides, in experiment [1], the “% inh of ERK1/2 phosphorylation in PANC-1” value was 0 (0% inhibition). In experiment [2], the “% inh of AKT phosphorylation in PANC-1” value was 0 (0% inhibition).
